From ChEMBL document CHEMBL1136821, “Modelling of carbonic anhydrase inhibitory activity of sulfonamides using molecular negentropy” (Bioorg Med Chem Lett, 2003)

Assays:
[1] = molecular target: Carbonic anhydrase 1 (Homo sapiens, UniProt P00915); assay: Inhibition of human carbonic anhydrase I (CAI)
[2] = molecular target: Carbonic anhydrase 2 (Homo sapiens, UniProt P00918); assay: Inhibition of human carbonic anhydrase II (CAII)
[3] = molecular target: T1, Carbonic anhydrase 4 (Bos taurus, UniProt Q95323); assay: Inhibition of bovine carbonic anhydrase IV (CAIV)
T1 sequence (Q95323 whole entry): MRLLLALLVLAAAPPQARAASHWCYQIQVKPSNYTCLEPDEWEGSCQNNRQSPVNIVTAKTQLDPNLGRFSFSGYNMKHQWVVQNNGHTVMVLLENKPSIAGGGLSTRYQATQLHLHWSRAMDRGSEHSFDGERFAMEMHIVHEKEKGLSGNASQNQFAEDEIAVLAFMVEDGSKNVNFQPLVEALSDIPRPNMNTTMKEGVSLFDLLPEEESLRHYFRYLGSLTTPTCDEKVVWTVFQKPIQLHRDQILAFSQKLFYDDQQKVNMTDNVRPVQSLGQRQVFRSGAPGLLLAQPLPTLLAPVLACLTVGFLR

Chain of Carbonic anhydrase 1 (P00915 whole entry): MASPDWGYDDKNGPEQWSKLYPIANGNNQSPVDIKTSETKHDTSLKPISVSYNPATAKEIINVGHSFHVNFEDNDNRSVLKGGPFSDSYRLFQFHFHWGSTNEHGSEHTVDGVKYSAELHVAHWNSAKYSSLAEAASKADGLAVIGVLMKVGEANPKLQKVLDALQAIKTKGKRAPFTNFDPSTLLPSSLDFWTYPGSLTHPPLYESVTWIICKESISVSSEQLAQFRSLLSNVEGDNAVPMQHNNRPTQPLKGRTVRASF

| Structure (SMILES) | Ki [1] [nM] | Ki [2] [nM] | Ki [3] [nM] |
| --- | --- | --- | --- |
| NS(=O)(=O)c1cc(S(N)(=O)=O)c(C(=O)c2cccc(C(=O)O)n2)c(Cl)c1C(=O)c1cccc(C(=O)O)n1 | 500 | 12 | 69 |
| NS(=O)(=O)c1ccc(NC(=O)c2cccc(C(=O)O)n2)cc1 | 21500 |  | 300 |
| NS(=O)(=O)c1ccc(CC(=O)c2cccc(C(=O)O)n2)cc1 |  |  | 79 |
| NS(=O)(=O)c1ccc(CCON2C(=O)c3cccnc3C2=O)cc1 | 2000 | 15 | 105 |
| NS(=O)(=O)c1cc(S(N)(=O)=O)c(NC(=O)c2cccc(C(=O)O)n2)c(Cl)c1NC(=O)c1cccc(C(=O)O)n1 | 450 | 10 | 55 |
| NS(=O)(=O)c1ccc(CON2C(=O)c3cccnc3C2=O)cc1 | 2040 | 20 | 120 |
| NS(=O)(=O)c1cc(S(N)(=O)=O)c(C(=O)c2cccc(C(=O)O)n2)cc1Cl | 600 | 8.99 | 60 |
| NS(=O)(=O)c1ccc(CCC(=O)c2cccc(C(=O)O)n2)cc1 | 906 | 8.99 | 54 |
| NS(=O)(=O)c1ccc(C(=O)c2cccc(C(=O)O)n2)c(I)c1 | 610 | 33 | 70 |
| Nc1c(S(N)(=O)=O)cc(S(N)(=O)=O)c(N)c1Cl | 6100 |  | 175 |
| NS(=O)(=O)c1ccc(C(=O)c2cccc(C(=O)O)n2)c(F)c1 | 540 | 10 | 46 |
| NS(=O)(=O)c1ccc(C(=O)c2cccc(C(=O)O)n2)c(Br)c1 | 605 |  | 75 |
| NS(=O)(=O)c1cccc(C(=O)c2cccc(C(=O)O)n2)c1 | 20000 | 250 | 305 |
| NS(=O)(=O)c1ccc(C(=O)c2cccc(C(=O)O)n2)cc1 | 15500 | 132 | 170 |
| NS(=O)(=O)c1ccc(C(=O)c2cccc(C(=O)O)n2)c(Cl)c1 | 620 | 44 | 79 |
| NS(=O)(=O)c1ccccc1C(=O)c1cccc(C(=O)O)n1 | 21000 | 280 | 310 |
